From ChEMBL document CHEMBL1201862, “PubChem BioAssay data set” (2004) come the findings set out here.

Common to all, as to assay: inhibition of tumour cell growth, NCI panel, 48 h
The test system of assay [1] is MDA-MB-435.
The subject of assay [2] is UACC-257.
Assay [3] deals with NCI-H522.
Assay [4] concerns SK-MEL-2.
Assay [5] relates to TK-10.
The subject of assay [6] is EKVX.
Assay [7] deals with M14.
The subject of assay [8] is SNB-19.
Assay [9] has as its system LOX IMVI.
For assay [10], the system named is HL-60.
In assay [11] the test system is PC-3.
In assay [12] the test system is COLO 205.
For assay [13], the system named is SK-MEL-28.
For assay [14], the system named is NCI-H460.
The test system of assay [15] is SR.
Assay [16] has as its system OVCAR-4.
For assay [17], the system named is MCF7.
Assay [18] concerns SNB-75.
The test system of assay [19] is SW-620.
In assay [20] the test system is HCT-116.

Molecules are shown by their SMILES.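 Following 48 hours of exposure in 96-well plates, responses at five concentrations were used to interpolate endpoints linearly. GI50: concentration for 50% inhibition of growth.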 The source made the active and inactive calls. No stated cut-off is given here; in the data, active = GI50 up to about 1.1 µM and inactive = higher.

On to `Cc1nc2sc(C(=O)c3ccc(Cl)cc3)c(N)c2c(-c2ccccc2Cl)c1C(=O)Nc1ccccc1`, for which the GI50 is 12.2 µM (inactive) in [1]; 18.6 µM (inactive) in assay [2]; 5.51 µM (inactive) in assay [3]; 3.08 µM (inactive) in [4]; 6.76 µM (inactive) in assay [5]; 21.9 µM (inactive) in assay [6]. Also, the GI50 in assay [7] was 9.71 µM (inactive); in assay [8], 22.2 µM (inactive); in [9], 12.2 µM (inactive); in assay [10], 11.2 µM (inactive); in assay [11], 19 µM (inactive); in assay [12], 18.3 µM (inactive). For the same compound, the GI50 was 13.1 µM (inactive) in assay [13]; 9.02 µM (inactive) in assay [14]; 18.1 µM (inactive) in [15]; 16.5 µM (inactive) in [16]; 15.2 µM (inactive) in assay [17]; 11.4 µM (inactive) in assay [18]. The GI50 in [19] is 6.22 µM (inactive); in assay [20] it was 6.44 µM (inactive).
As for `CC1=CC(=O)c2cccc(O)c2C1=O`, the GI50 in assay [1] was 1.78 µM (inactive); in assay [2], 1.79 µM (inactive); in assay [3], 2.25 µM (inactive); in assay [4], 2.09 µM (inactive); in [5], 2.43 µM (inactive); in assay [6], 4.29 µM (inactive). Besides, the GI50 was 1.81 µM (inactive) in [7]; 8.07 µM (inactive) in assay [8]; 2.52 µM (inactive) in [9]; 0.935 µM (active) in assay [10]; 2.1 µM (inactive) in [11]; 2.09 µM (inactive) in [12]. The GI50 in assay [13] was 4.25 µM (inactive); in assay [14] it was 5.75 µM (inactive); in assay [15], 1.8 µM (inactive); in assay [16] it was 1.92 µM (inactive); in assay [17], 1.99 µM (inactive); in assay [18] it was 8.73 µM (inactive). In addition, the GI50 in [19] was 1.99 µM (inactive); in assay [20], 1.91 µM (inactive).
As for `OCC(S)CS.[Bi]` (stereo not given), the GI50 in assay [1] was 15.2 µM (inactive); in assay [2] it was 13 µM (inactive); in assay [3], 1.58 µM (inactive); in [4], 12.6 µM (inactive); in assay [5] it was 17.8 µM (inactive); in [6], 18 µM (inactive). Also, the GI50 in assay [7] is 8.36 µM (inactive); in assay [8], 13.7 µM (inactive); in assay [9], 20.7 µM (inactive); in assay [10], 16.2 µM (inactive); in [11] it was 13.1 µM (inactive); in assay [12], 14.5 µM (inactive). Besides, the GI50 in [13] was 12 µM (inactive); in [14], 13.4 µM (inactive); in assay [15] it was 4.06 µM (inactive); in assay [16] it was 23.6 µM (inactive); in [17], 18.5 µM (inactive); in assay [18] it was 11.1 µM (inactive). In addition, the GI50 is 16 µM (inactive) in [19] and 17.7 µM (inactive) in assay [20].
For the compound `O=C(Nc1ccccn1)c1cc2c(cc1Cl)Sc1nccn1S2(=O)=O`, the GI50 in [1] was 27.9 µM (inactive); in [2], 33.7 µM (inactive); in assay [3], 39.1 µM (inactive); in assay [4], 20 µM (inactive); in assay [5] it was 33.4 µM (inactive); in assay [6], 38.2 µM (inactive). The GI50 in [7] was 48.9 µM (inactive); in [8] it was 56.1 µM (inactive); in [9], 26.8 µM (inactive); in [10], 23.9 µM (inactive); in [11], 44.8 µM (inactive); in [12] it was 33.5 µM (inactive). Further, the GI50 in assay [13] was 44.3 µM (inactive); in [14], 30.1 µM (inactive); in assay [15], 29.4 µM (inactive); in assay [16] it was 33 µM (inactive); in assay [17] it was 41.8 µM (inactive); in assay [18], 33.2 µM (inactive). Besides, the GI50 is 45 µM (inactive) in assay [19] and 28.4 µM (inactive) in assay [20].
In the case of `c1ccc2c(c1)c1c(c3ccccc32)CN2CCCC2C1` (stereo not given), the GI50 is 4.42 µM (inactive) in [1]; 4.05 µM (inactive) in [2]; 2.57 µM (inactive) in assay [3]; 2.3 µM (inactive) in assay [4]; 10.4 µM (inactive) in [5]; 4.74 µM (inactive) in assay [6]. Further, the GI50 is 3.67 µM (inactive) in assay [7]; 2.66 µM (inactive) in assay [8]; 3.35 µM (inactive) in assay [9]; 1.41 µM (inactive) in [10]; 3 µM (inactive) in assay [11]; 3.63 µM (inactive) in assay [12]. Besides, the GI50 in assay [13] was 2.62 µM (inactive); in assay [14] it was 3.03 µM (inactive); in [15], 4.89 µM (inactive); in assay [16] it was 3.3 µM (inactive); in [17], 2.44 µM (inactive); in assay [18], 3.01 µM (inactive). The GI50 in [19] was 2.45 µM (inactive); in assay [20] it was 3.17 µM (inactive).
As to `CC(C)=C[C@H]1C[C@H](C)[C@H]2CC[C@H](C)c3c2c1c(C)c1ncoc31`, the GI50 was 17.8 µM (inactive) in assay [1]; 18.4 µM (inactive) in assay [2]; 16 µM (inactive) in assay [3]; 14.9 µM (inactive) in assay [4]; 17.4 µM (inactive) in [5]; 15.9 µM (inactive) in [6]. Moreover, the GI50 in [7] was 15 µM (inactive); in assay [8], 14.6 µM (inactive); in [9], 20.1 µM (inactive); in [10] it was 11.5 µM (inactive); in assay [11], 17 µM (inactive); in [12] it was 16.7 µM (inactive). Moreover, the GI50 in assay [13] is 18.7 µM (inactive); in assay [14], 18.4 µM (inactive); in assay [15], 14.1 µM (inactive); in assay [16], 19.2 µM (inactive); in assay [17], 15 µM (inactive); in [18] it was 18.8 µM (inactive). Further, the GI50 in assay [19] is 15.3 µM (inactive); in assay [20], 18.6 µM (inactive).
`Cc1ccc(-c2n[nH]c(=O)n2N)cc1`: the GI50 in assay [1], in [2], in [3], in assay [4], in assay [5] and in [6] was > 100 µM (inactive) throughout. For the same compound, the GI50 in assay [7], in assay [8], in [9], in assay [10], in assay [11] and in assay [12] was > 100 µM (inactive) throughout. Besides, the GI50 in assay [13] was > 100 µM (inactive); in [14], > 100 µM (inactive); in [15] it was > 100 µM (inactive); in assay [16], > 100 µM (inactive); in assay [17] it was > 100 µM (inactive); in assay [18], 48 µM (inactive). Besides, the GI50 in [19] and in assay [20] was > 100 µM (inactive) throughout.
